According to patent US4826840A, “Cerebral protecting agent” (Taiyo Pharmaceutical Industry Co., Ltd., priority 1987, dated 1989):
Where a name gives a salt, the structure may show the parent alone.

Legend:
Measurement of LD50 = conditions: mouse, in vivo
From the text: ddY male mice having been preliminary bred in the same manner as Example 7 were orally given the test compounds to determine LD50.

[1] = Protective effect against KCN death; type: in vivo, ddY male mice
[2] = Effect on brain ischemia model by MgCl2; type: in vivo, ddY male mice; conditions: for Survival Time: 2 h before saturated MgCl2 i.v.; for Prolongation of survival time (in words): doses of about 40 mg/kg, oral
Procedure: ddY male mice (age: 7 weeks) having been preliminary bred in the same manner as in Example 7 were fasted and orally administered with the test compounds dissolved in 0.3%methylcellulose solution. Two (2) hours later, 0.05 ml of saturated solution of MgCl2 was intravenously administered rapidly through the caudal vein. The […] was determined as the period of time until final gasping.

[3] = test system: common carotid artery blood flow; assay: Effect on common carotid artery blood flow; type: in vivo, Male adult dogs; conditions: for Increase in CCBF (Δ%): n = 3; for Increase of CCBF (in words): i.v., anesthetized dogs
Procedure: (§1) Male adult dogs (weight: […]) were used for the experiment after they were preliminary bred in the metal cage for 1 week in a breeding room in which the temperature was controlled at 22±2° C. and the humidity was at 55±10%. They were given pelleted diet (CS, product of Oriental Yeast Co.) and water ad lib. Prior to submitting the animals to the experiment, they were fasted for 21-23 hours.
(§2) The dogs were anesthetized with sodium pentobarbital and probes for measuring the blood flows were fitted on the right vertebral artery and right common carotid artery. After measuring the control blood flows, the test compounds dissolved in physiological saline were intravenously administered. The vertebral artery blood flow (VBF) and the common carotid artery flow (CCBF) were measured to determine the increments of the blood flow resulting from administration of the test compounds.

[4] = test system: vertebral artery blood flow; assay: Effect on vertebral artery blood flow; type: in vivo, Male adult dogs; conditions: for Increase in VBF (Δ%): n = 3; for Increase of VBF (in words): i.v., anesthetized dogs
Procedure: as §1, §2

[5] = Effect on bicuculline convulsion; type: in vivo, Wister male rats; conditions: 1 h before bicuculline 1.75 mg/kg i.v.; for Inhibition of the tonic extension (in words): oral
Procedure: Each test compound was dissolved in 0.5% methylcellulose solution and orally administered to each mouse, and 1 hour later 1.75 mg/kg of bicuculline was given intravenously through caudal vein over the period of 15 seconds. Then, the tonic hindpaw extension was observed.

[6] = 40 mg/kg p.o., 2 h before KCN 2.1 mg/kg i.v.

SMILES: CCCCC1=Cc2cc3c(cc2C1N1CCN(CCCC)CC1)OCO3 (centres unmarked) [Compound 3b]
- LD50 (Measurement of LD50; oral, ddY male mice): 430 mg/kg
- Rate of Survival (%) [1, 6]: 33%
- Survived Animals/Tested Animals [1, 6]: 3/9

SMILES: CCCCC1=C(c2ccccc2)c2cc3c(cc2C1N1CCN(CCC)CC1)OCO3 (centres unmarked) [Compound 6b]
- LD50 (Measurement of LD50; oral, ddY male mice): 608 mg/kg
- Rate of Survival (%) [1, 6]: 30%
- Survived Animals/Tested Animals [1, 6]: 3/10

SMILES: CCOC(=O)C1=C[C@]2(CC)CCCN3CCc4c(n1c1ccccc41)[C@@H]32 [vinpocetine, reference compound]
- Survival Time ([2]; 80 mg/kg oral): 22.5 ± 1.1 s

SMILES: COC(=O)C1=C(C)NC(C)=C(C(=O)OCCN(C)Cc2ccccc2)C1c1cccc([N+](=O)[O-])c1 (centres unmarked) [nicardipine, reference compound]
- Survival Time ([2]; 80 mg/kg oral): 24.3 ± 1.0 s

SMILES: CCCCC1=Cc2cc3c(cc2C1N1CCN(CCC)CC1)OCO3 (centres unmarked) [Compound 2b]
- Survival Time ([2]; 40 mg/kg oral): 28.3 ± 1.5 s
- Survival Time ([2]; 80 mg/kg oral): 32.4 ± 1.5 s
- Prolongation of survival time (in words) [2]: significant prolongation of survival time dose-dependency
- LD50 (Measurement of LD50; po): 450 mg/kg
- Increase in CCBF (Δ%) ([3]; 1 mg/kg i.v., 1 min): 1.5 ± 1.5 Δ%
- Increase in CCBF (Δ%) ([3]; 1 mg/kg i.v., 2 min): 5.2 ± 1.6 Δ%
- Increase in CCBF (Δ%) ([3]; 1 mg/kg i.v., 3 min): 2.4 ± 1.2 Δ%
- Increase in CCBF (Δ%) ([3]; 1 mg/kg i.v., 4 min): 1.4 ± 1.4 Δ%
- Increase in CCBF (Δ%) ([3]; 1 mg/kg i.v., 5 min): -1.0 ± 1.0 Δ%
- Increase in CCBF (Δ%) ([3]; 3 mg/kg i.v., 1 min): 7.1 ± 5.6 Δ%
- Increase in CCBF (Δ%) ([3]; 3 mg/kg i.v., 2 min): 9.8 ± 7.4 Δ%
- Increase in CCBF (Δ%) ([3]; 3 mg/kg i.v., 3 min): 4.6 ± 4.8 Δ%
- Increase in CCBF (Δ%) ([3]; 3 mg/kg i.v., 4 min): -1.8 ± 4.3 Δ%
- Increase in CCBF (Δ%) ([3]; 3 mg/kg i.v., 5 min): -5.9 ± 2.1 Δ%
- Increase of CCBF (in words) [3]: increased VBF and CCBF dose-dependently
- Increase in VBF (Δ%) ([4]; 1 mg/kg i.v., 1 min): 7.2 ± 4.9 Δ%
- Increase in VBF (Δ%) ([4]; 1 mg/kg i.v., 2 min): 18.6 ± 7.4 Δ%
- Increase in VBF (Δ%) ([4]; 1 mg/kg i.v., 3 min): 24.6 ± 8.3 Δ%
- Increase in VBF (Δ%) ([4]; 1 mg/kg i.v., 4 min): 17.6 ± 8.8 Δ%
- Increase in VBF (Δ%) ([4]; 1 mg/kg i.v., 5 min): 3.7 ± 3.7 Δ%
- Increase in VBF (Δ%) ([4]; 3 mg/kg i.v., 1 min): 43.1 ± 28.5 Δ%
- Increase in VBF (Δ%) ([4]; 3 mg/kg i.v., 2 min): 74.3 ± 23.3 Δ%
- Increase in VBF (Δ%) ([4]; 3 mg/kg i.v., 3 min): 78.2 ± 28.2 Δ%
- Increase in VBF (Δ%) ([4]; 3 mg/kg i.v., 4 min): 40.5 ± 21.1 Δ%
- Increase in VBF (Δ%) ([4]; 3 mg/kg i.v., 5 min): 18.5 ± 12.7 Δ%
- Increase of VBF (in words) [4]: increased VBF and CCBF dose-dependently
- Rate of Survival (%) ([1]; mouse, in vivo): 50%
- Survived Animals/Tested Animals ([1]; mouse, in vivo): 5/10
- Animals Convulsed/Animals Tested ([5]; 5 mg/kg oral): 6/10
- Rate of Convulsion Inhibition (%) ([5]; 5 mg/kg oral): 40%
- Animals Convulsed/Animals Tested ([5]; 10 mg/kg oral): 5/10
- Rate of Convulsion Inhibition (%) ([5]; 10 mg/kg oral): 50%
- Animals Convulsed/Animals Tested ([5]; 15 mg/kg oral): 2/10
- Rate of Convulsion Inhibition (%) ([5]; 15 mg/kg oral): 80%
- Animals Convulsed/Animals Tested ([5]; 20 mg/kg oral): 0/10
- Rate of Convulsion Inhibition (%) ([5]; 20 mg/kg oral): 100%
- Inhibition of the tonic extension (in words) [5]: inhibited the tonic extension dose-dependency

SMILES: CCCCC1=Cc2cc3c(cc2C1N1CCCN(CCC)CC1)OCO3 (centres unmarked) [Compound 4b]
- LD50 (Measurement of LD50; oral, ddY male mice): 373 mg/kg
- Rate of Survival (%) [1, 6]: 56%
- Survived Animals/Tested Animals [1, 6]: 5/9

SMILES: CCCCC1=C(C)c2cc3c(cc2C1N1CCN(CCC)CC1)OCO3 (centres unmarked) [Compound 5b]
- LD50 (Measurement of LD50; oral, ddY male mice): 510 mg/kg
- Rate of Survival (%) [1, 6]: 56%
- Survived Animals/Tested Animals [1, 6]: 5/9

SMILES: CCCCC1=Cc2cc3c(cc2C1N1CCN(C)CC1)OCO3 (centres unmarked) [Compound 1c, Dihydrochloride of 1-(4-methylpiperazinyl)-2-n-butyl-5,6-methylenedioxyindene]
- Survival Time ([2]; 40 mg/kg oral): 28.8 ± 0.6 s
- Survival Time ([2]; 80 mg/kg oral): 32.3 ± 0.6 s
- Prolongation of survival time (in words) [2]: significant prolongation of survival time dose-dependency
- LD50 (Measurement of LD50; po): 368 mg/kg
- Increase in CCBF (Δ%) ([3]; 0.3 mg/kg i.v., 1 min): 2.4 ± 1.3 Δ%
- Increase in CCBF (Δ%) ([3]; 0.3 mg/kg i.v., 2 min): 4.5 ± 0.7 Δ%
- Increase in CCBF (Δ%) ([3]; 0.3 mg/kg i.v., 3 min): 4.5 ± 0.7 Δ%
- Increase in CCBF (Δ%) ([3]; 0.3 mg/kg i.v., 4 min): 4.5 ± 0.7 Δ%
- Increase in CCBF (Δ%) ([3]; 0.3 mg/kg i.v., 5 min): 0.8 ± 2.7 Δ%
- Increase in CCBF (Δ%) ([3]; 0.3 mg/kg i.v., 10 min): 0 ± 0 Δ%
- Increase in CCBF (Δ%) ([3]; 0.3 mg/kg i.v., 15 min): 2.2 ± 2.8 Δ%
- Increase in CCBF (Δ%) ([3]; 1 mg/kg i.v., 1 min): 5.2 ± 0.8 Δ%
- Increase in CCBF (Δ%) ([3]; 1 mg/kg i.v., 2 min): 11.9 ± 4.7 Δ%
- Increase in CCBF (Δ%) ([3]; 1 mg/kg i.v., 3 min): 13.9 ± 7.4 Δ%
- Increase in CCBF (Δ%) ([3]; 1 mg/kg i.v., 4 min): 12.8 ± 7.2 Δ%
- Increase in CCBF (Δ%) ([3]; 1 mg/kg i.v., 5 min): 6.4 ± 3.6 Δ%
- Increase in CCBF (Δ%) ([3]; 1 mg/kg i.v., 10 min): 1.1 ± 1.1 Δ%
- Increase in CCBF (Δ%) ([3]; 1 mg/kg i.v., 15 min): 3.6 ± 2.0 Δ%
- Increase in CCBF (Δ%) ([3]; 3 mg/kg i.v., 1 min): 9.5 ± 2.7 Δ%
- Increase in CCBF (Δ%) ([3]; 3 mg/kg i.v., 2 min): 19.0 ± 16.1 Δ%
- Increase in CCBF (Δ%) ([3]; 3 mg/kg i.v., 3 min): 14.1 ± 18.0 Δ%
- Increase in CCBF (Δ%) ([3]; 3 mg/kg i.v., 4 min): 12.7 ± 14.2 Δ%
- Increase in CCBF (Δ%) ([3]; 3 mg/kg i.v., 5 min): 9.3 ± 10.8 Δ%
- Increase in CCBF (Δ%) ([3]; 3 mg/kg i.v., 10 min): 6.1 ± 5.8 Δ%
- Increase in CCBF (Δ%) ([3]; 3 mg/kg i.v., 15 min): 4.9 ± 5.0 Δ%
- Increase of CCBF (in words) [3]: increased VBF and CCBF dose-dependently
- Increase in VBF (Δ%) ([4]; 0.3 mg/kg i.v., 1 min): 6.3 ± 6.3 Δ%
- Increase in VBF (Δ%) ([4]; 0.3 mg/kg i.v., 2 min): 19.7 ± 9.0 Δ%
- Increase in VBF (Δ%) ([4]; 0.3 mg/kg i.v., 3 min): 32.2 ± 15.8 Δ%
- Increase in VBF (Δ%) ([4]; 0.3 mg/kg i.v., 4 min): 26.5 ± 13.2 Δ%
- Increase in VBF (Δ%) ([4]; 0.3 mg/kg i.v., 5 min): 16.1 ± 7.9 Δ%
- Increase in VBF (Δ%) ([4]; 0.3 mg/kg i.v., 10 min): 12.5 ± 12.5 Δ%
- Increase in VBF (Δ%) ([4]; 0.3 mg/kg i.v., 15 min): 15.5 ± 11.3 Δ%
- Increase in VBF (Δ%) ([4]; 1 mg/kg i.v., 1 min): 9.6 ± 5.1 Δ%
- Increase in VBF (Δ%) ([4]; 1 mg/kg i.v., 2 min): 59.6 ± 33.3 Δ%
- Increase in VBF (Δ%) ([4]; 1 mg/kg i.v., 3 min): 74.5 ± 36.3 Δ%
- Increase in VBF (Δ%) ([4]; 1 mg/kg i.v., 4 min): 68.9 ± 39.3 Δ%
- Increase in VBF (Δ%) ([4]; 1 mg/kg i.v., 5 min): 39.2 ± 27.5 Δ%
- Increase in VBF (Δ%) ([4]; 1 mg/kg i.v., 10 min): 14.0 ± 8.5 Δ%
- Increase in VBF (Δ%) ([4]; 1 mg/kg i.v., 15 min): 11.7 ± 9.0 Δ%
- Increase in VBF (Δ%) ([4]; 3 mg/kg i.v., 1 min): 44.2 ± 16.3 Δ%
- Increase in VBF (Δ%) ([4]; 3 mg/kg i.v., 2 min): 154.7 ± 56.5 Δ%
- Increase in VBF (Δ%) ([4]; 3 mg/kg i.v., 3 min): 173.7 ± 61.6 Δ%
- Increase in VBF (Δ%) ([4]; 3 mg/kg i.v., 4 min): 143.6 ± 54.0 Δ%
- Increase in VBF (Δ%) ([4]; 3 mg/kg i.v., 5 min): 111.4 ± 49.6 Δ%
- Increase in VBF (Δ%) ([4]; 3 mg/kg i.v., 10 min): 65.8 ± 30.5 Δ%
- Increase in VBF (Δ%) ([4]; 3 mg/kg i.v., 15 min): 37.5 ± 18.4 Δ%
- Increase of VBF (in words) [4]: increased VBF and CCBF dose-dependently
- Rate of Survival (%) ([1]; mouse, in vivo): 78%
- Survived Animals/Tested Animals ([1]; mouse, in vivo): 7/9
- Animals Convulsed/Animals Tested ([5]; 1 mg/kg oral): 8/10
- Rate of Convulsion Inhibition (%) ([5]; 1 mg/kg oral): 20%
- Animals Convulsed/Animals Tested ([5]; 5 mg/kg oral): 5/10
- Rate of Convulsion Inhibition (%) ([5]; 5 mg/kg oral): 50%
- Animals Convulsed/Animals Tested ([5]; 10 mg/kg oral): 1/10
- Rate of Convulsion Inhibition (%) ([5]; 10 mg/kg oral): 90%
- Animals Convulsed/Animals Tested ([5]; 15 mg/kg oral): 0/10
- Rate of Convulsion Inhibition (%) ([5]; 15 mg/kg oral): 100%
- Inhibition of the tonic extension (in words) [5]: inhibited the tonic extension dose-dependency
